Our source for the IC50, Activity and inhibition values is ChEMBL document CHEMBL6074647, “Design, synthesis and antitumor activity of novel 4-oxobutanamide derivatives” (Bioorg Med Chem Lett, 2024).

The test system of one experiment is NCI-H460. Put plainly: Antiproliferative activity against human NCI-H460 cells assessed as inhibition of cell growth. The format is functional, cell-based.
For experiment [1], the system named is HeLa. The experiment is described as follows: Antiproliferative activity against human HeLa cells assessed as inhibition of cell growth. The format is functional, cell-based.
For experiment [2], the system named is A498. The experiment is described as follows: Inhibition of colony formation in human A498 cells assessed as proliferative capacity at 2 uM. The format is functional. Also noted: scale not given: the % may be the effect or the level left.
Experiment [3] concerns A498. Put plainly: Anti-angiogenesis activity against human A498 cells xenografted in chicken embryo chorioallantoic membrane assessed as CAM blood vessel growth at 4 uM. It counts as functional.
Experiment [4] relates to A498. Put plainly: Antitumor activity against human A498 cells xenografted in chicken embryo chorioallantoic membrane assessed as decrease in tumor weight. The format is functional, cell-based. Particulars: dose 1-4 µM; call rule not given here.
In experiment [5] the test system is A498. Put plainly: Inhibition of cell adhesion in human A498 cells at 4 uM. It counts as functional, cell-based.
The test system of experiment [6] is A498. Put plainly: Inhibition of colony formation in human A498 cells assessed as proliferative capacity at 4 uM. It counts as functional. Also noted: scale not given: the % may be the effect or the level left.
The subject of experiment [7] is A498. The experiment is described as follows: Anti-angiogenesis activity against human A498 cells xenografted in chicken embryo chorioallantoic membrane assessed as CAM blood vessel growth at 1 uM. It counts as functional. For orientation: A xenograft is tissue or cells of one species grown in another, often human tumour cells in immunodeficient mice.
For another experiment, the system named is MDA-MB-231. The experiment is described as follows: Antiproliferative activity against human MDA-MB-231 cells assessed as reduction in cell viability by MTT assay. The format is functional, cell-based.
Experiment [8] deals with A498. The experiment is described as follows: Inhibition of colony formation in human A498 cells assessed as proliferative capacity at 1 uM. Also noted: scale not given: the % may be the effect or the level left. It counts as functional.
For experiment [9], the system named is A498. The experiment is described as follows: Antiproliferative activity against human A498 cells assessed as reduction in cell viability by MTT assay. The format is functional, cell-based. A general note: Formazan colour is commonly taken as a measure of viable cells.
The subject of experiment [10] is A498. The experiment is described as follows: Anti-angiogenesis activity against human A498 cells xenografted in chicken embryo chorioallantoic membrane assessed as CAM blood vessel growth at 2 uM. It counts as functional.
In experiment [11] the test system is A498. Put plainly: Antitumor activity against human A498 cells xenografted in chicken embryo chorioallantoic membrane assessed as decrease in tumor weight at 4 uM. It counts as functional, cell-based.
Experiment [12] deals with A498. Put plainly: Inhibition of cell invasion in human A498 cells assessed as decrease in cell density invading the bottom surface of the membrane at 2 uM by Transwell assay. It counts as functional, cell-based.
The test system of experiment [13] is A498. Put plainly: Inhibition of cell adhesion in human A498 cells. Conditions: dose 1-4 µM. The format is functional, cell-based.
For experiment [14], the system named is HeLa. The experiment is described as follows: Antiproliferative activity against human HeLa cells assessed as reduction in cell viability by MTT assay. It counts as functional, cell-based.
In experiment [15] the test system is A498. Put plainly: Inhibition of cell invasion in human A498 cells assessed as decrease in cell density invading the bottom surface of the membrane by Transwell assay. The format is functional, cell-based. Particulars: dose 1-4 µM.
Another experiment concerns SMMC-7721. The experiment is described as follows: Antitumor activity against human […] cells. The format is functional, cell-based.
Another experiment concerns A2780. Put plainly: Antitumor activity against human A2780 cells. The format is functional, cell-based.
A further experiment concerns PANC-1. The experiment is described as follows: Antitumor activity against human PANC-1 cells. It counts as functional, cell-based.

The IC50 is the midpoint of a concentration-inhibition curve. In the case of `COc1ccc(N(C)c2nc(C)nc3ccccc23)cc1NC(=O)CCC(=O)NO`, the IC50 was 1.05 µM with NCI-H460 and 2.41 µM in the experiment on HeLa [1].
`COc1ccc(CN(C(=O)CCC(=O)Nc2ccc(OC)cc2)c2cc(OC)c(OC)c(OC)c2)cc1`: the Activity in the experiment with A498 [2] was 26.03%; in the experiment with A498 [3] it was 42.04%; in the experiment with A498 [4], “Dose-dependent-effect”; in the experiment with A498 [6] it was 11.16%; in the experiment with A498 [7], 82.4%; in the experiment with A498 [8], 66.94%. The Activity with A498 [10] is 66.22%; in the experiment on A498 [11] it was “Active; Better Activity Compared To Positive Control, Paclitaxel And Colchicine”. In addition, the inhibition entry with A498 [5] was “Active; Better Activity Compared To Positive Control, Paclitaxel And Colchicine”; with A498 [12], “Active; Better Activity Compared To 4 Um Positive Control, Paclitaxel And Colchicine”; in the experiment with A498 [13], “Dose-dependent-effect”; with A498 [15], “Dose-dependent-effect”. Moreover, the half-maximal inhibitory concentration (IC50) with MDA-MB-231 came to 31.5 µM; in the experiment with A498 [9], 1.94 µM; in the experiment with HeLa [14], 8.24 µM.
As for `COc1ccc(CN(C(=O)CCC(=O)Nc2ccc(O)cc2)c2cc(OC)c(OC)c(OC)c2)cc1`, the concentration for half-maximal inhibition (IC50) with MDA-MB-231 stood at 23.5 µM; in the experiment on A498 [9] it was 3.23 µM; in the experiment on HeLa [14], 11.8 µM.
As to `COc1ccc(CN(C(=O)CCC(=O)Nc2ccccc2OC)c2cc(OC)c(OC)c(OC)c2)cc1`, the concentration for half-maximal inhibition (IC50) was 74.4 µM in the experiment with MDA-MB-231, 5.81 µM with A498 [9] and 48.3 µM in the experiment on HeLa [14].
The matching figures for `COc1ccc(CN(C(=O)CCC(=O)Nc2ccc(C)cc2)c2cc(OC)c(OC)c(OC)c2)cc1`: 8.08 µM, 5.34 µM and more than 100 µM.
Consider `COc1ccc(CN(C(=O)CCC(=O)Nc2cccc(Cl)c2)c2cc(OC)c(OC)c(OC)c2)cc1`, for which the IC50 in the experiment with MDA-MB-231 turned out to be 48.3 µM; with A498 [9], 10.7 µM; with HeLa [14], 20.4 µM.
For `COc1ccc(CN(C(=O)CCC(=O)Nc2ccc(C(F)(F)F)cc2)c2cc(OC)c(OC)c(OC)c2)cc1`, in that order: more than 100 µM, more than 100 µM and 4.65 µM.
With `CC(=O)O[C@H]1C(=O)[C@@]2(C)[C@H]([C@H](OC(=O)c3ccccc3)[C@]3(O)C[C@H](OC(=O)[C@H](O)[C@@H](NC(=O)c4ccccc4)c4ccccc4)C(C)=C1C3(C)C)[C@]1(OC(C)=O)CO[C@@H]1C[C@@H]2O` [PACLITAXEL], the IC50 in the experiment with MDA-MB-231 worked out at 31.4 µM; in the experiment with HeLa [14], 21.3 µM.
Turning to `COc1ccc(CN(C(=O)CCC(=O)Nc2cccc(F)c2)c2cc(OC)c(OC)c(OC)c2)cc1`, the values for the IC50 in the experiment with MDA-MB-231, in the experiment on A498 [9] and with HeLa [14] were 56.2 µM, 11.9 µM and 39.8 µM, respectively.
For the compound `COc1ccc(CN(C(=O)C(=O)Nc2ccc(Cl)cc2)c2cc(OC)c(OC)c(OC)c2)cc1`, the half-maximal inhibitory concentration (IC50) in the experiment with MDA-MB-231 came out at 40.7 µM.
Regarding `COc1ccc(CN(C(=O)CCC(=O)Nc2ccccc2)c2cc(OC)c(OC)c(OC)c2)cc1`, the figures for the IC50 with MDA-MB-231, with A498 [9] and with HeLa [14] were 16.1 µM, 2.11 µM and 16 µM, respectively.
The matching figures for `COc1ccc(CN(C(=O)CCC(=O)Nc2cccc(OC)c2)c2cc(OC)c(OC)c(OC)c2)cc1`: 21.4 µM, 8.27 µM and 12 µM.
Take `COc1cc2c(c(OC)c1OC)-c1ccc(OC)c(=O)cc1[C@@H](NC(C)=O)CC2` [COLCHICINE]: the IC50 in the experiment with MDA-MB-231 was more than 100 µM; in the experiment on A498 [9] it was 7.17 µM; in the experiment with HeLa [14] it was 32.7 µM.
The matching figures for `COc1ccc(CN(C(=O)CCC(=O)Nc2ccc(F)cc2)c2cc(OC)c(OC)c(OC)c2)cc1`: 24 µM, 4.06 µM and 2.39 µM.
As for `COc1ccc(CN(C(=O)CCC(=O)Nc2ccc(Br)cc2)c2cc(OC)c(OC)c(OC)c2)cc1`, the half-maximal inhibitory concentration (IC50) in the experiment with MDA-MB-231 is 58.6 µM; in the experiment on A498 [9], 5.4 µM; in the experiment with HeLa [14] it was 20.8 µM.
Turning to `COc1ccc(CN(C(=O)CCC(=O)Nc2ccccc2Cl)c2cc(OC)c(OC)c(OC)c2)cc1`, the values for the IC50 with MDA-MB-231, in the experiment on A498 [9] and in the experiment with HeLa [14] were 73 µM, 5.58 µM and 41.9 µM, respectively.
With `COc1ccc(CN(C(=O)C(=O)Nc2ccc(C)cc2)c2cc(OC)c(OC)c(OC)c2)cc1`, the 50% inhibitory concentration (IC50) in the experiment on MDA-MB-231 is 55.9 µM.
Consider `COc1ccc(CN(C(=O)CCC(=O)Nc2cc(OC)c(OC)c(OC)c2)c2cc(OC)c(OC)c(OC)c2)cc1`, for which the concentration for half-maximal inhibition (IC50) was more than 100 µM with MDA-MB-231, more than 100 µM in the experiment with A498 [9] and 57.5 µM in the experiment with HeLa [14].
Regarding `COc1ccc(CCc2cc(OC)c(OC)c(OC)c2)cc1O`, the IC50 stood at 0.29 µM in the experiment with SMMC-7721, 0.42 µM in the experiment on A2780 and 0.45 µM in the experiment on PANC-1.
On to `COc1ccc(CN(C(=O)CCC(=O)Nc2ccc(Cl)cc2)c2cc(OC)c(OC)c(OC)c2)cc1`, for which the values for the IC50 with MDA-MB-231, in the experiment on A498 [9] and in the experiment with HeLa [14] were 22.5 µM, 11.5 µM and 13.8 µM, respectively.
Regarding `COc1ccc(CN(C(=O)CCC(=O)Nc2cccc(C)c2)c2cc(OC)c(OC)c(OC)c2)cc1`, the half-maximal inhibitory concentration (IC50) in the experiment with MDA-MB-231 was determined as 16.6 µM; in the experiment on A498 [9], 8.85 µM; in the experiment with HeLa [14], 19.2 µM.
